Values joined by “and” are separate entries in the source; they are usually repeats but may differ in a detail not shown here. Equal values may be shown once.
System: HIV-1JR-FL EnvΔCT expressed at the surface of HOS cells
Test: Cell-based ELISA (CBE), 17b readout
Details: for Fold over BNM-III-170 - 17b binding (±0.05): MCG analogs 50 μM, BNM-III-170 5 μM, 2G12 and DMSO normalized; for capacity to expose the CoRBS (17b binding, CBE): compounds 50 μM, result in words
Summary of the method: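 HOS cells transiently expressing cytoplasmic-tail-truncated HIV-1JR-FL Env were treated 30 min at room temperature with compounds (50 μM), sCD4 ([…]) or DMSO, then 1 h with 17b antibody. Bound 17b was detected by HRP-conjugated anti-Fc chemiluminescence; values are fold over BNM-III-170 (5 μM), normalized to 2G12 and DMSO.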

| Compound | Fold over BNM-III-170 - 17b binding (±0.05) | capacity to expose the CoRBS (17b binding, CBE) |
| --- | --- | --- |
| CS(=O)(=O)N1CCC[C@H](C(=O)Nc2ccc(Cl)c(F)c2)C1 [(S)-MCG-III-027-D05] | 0.46 fold and 0.58 fold | enhanced the capacity |
| COC(=O)N1CCC[C@H](C(=O)Nc2ccc(Cl)c(F)c2)C1 [(S)-MCG-III-188-A01] | 0.50 fold | higher activity |
| COc1cccc(NC(=O)[C@H]2CCCN(S(C)(=O)=O)C2)c1 [(S)-MCG-III-027-B05] | 0.06 fold |  |
| Cn1cnc(S(=O)(=O)N2CCC[C@H](C(=O)Nc3ccc(Cl)c(F)c3)C2)c1 [(S)-MCG-III-116-A02] | 0.24 fold |  |
| CS(=O)(=O)N1CCC[C@H](C(=O)Nc2cccc(C(F)(F)F)c2)C1 [(S)-MCG-III-027-B04] | 0.07 fold |  |
| CS(=O)(=O)N1CCC[C@H](C(=O)Nc2cccc(Br)c2)C1 [(S)-MCG-III-027-B02] | 0.10 fold |  |
| CS(=O)(=O)N1CCC[C@H](C(=O)Nc2ccc(F)cc2)C1 [(S)-MCG-III-027-A03] | 0.12 fold |  |
| O=C(Nc1ccc(Cl)c(F)c1)C1CCCN(S(=O)(=O)c2ccccc2)C1 (stereo not drawn) [MCG-III-157-B03] | 0.43 fold |  |
| CS(=O)(=O)N1CCC[C@H](C(=O)Nc2ccccc2Cl)C1 [(S)-MCG-III-027-C01] | 0.06 fold |  |
| O=C(Nc1ccc(Cl)c(F)c1)C1CCCOC1 (stereo not drawn) [MCG-III-207] | 0.48 fold |  |
| NCCNC(=O)N1CCC[C@H](C(=O)Nc2ccc(Cl)c(F)c2)C1 [(S)-MCG-IV-210] | 0.58 fold | higher activity |
| CS(=O)(=O)N1CCC[C@H](C(=O)Nc2ccc(Br)cc2)C1 [(S)-MCG-III-027-A02] | 0.36 fold |  |
| Cn1cnc(S(=O)(=O)N2CCCC(C(=O)Nc3ccc(Cl)c(F)c3)C2)c1 (stereo not drawn) [MCG-III-157-B04] | 0.69 fold |  |
| CCCNC(=O)N1CCC[C@H](C(=O)Nc2ccc(Cl)c(F)c2)C1 [(S)-MCG-IV-031-A05] | 0.55 fold | higher activity |
| CCS(=O)(=O)N1CCC[C@H](C(=O)Nc2ccc(Cl)c(F)c2)C1 [(S)-MCG-III-085-C01] | 0.35 fold |  |
| CS(=O)(=O)N1CCC[C@H](C(=O)Nc2cccc(Cl)c2)C1 [(S)-MCG-III-027-B01] | 0.10 fold |  |
| CCOC(=O)N1CCC[C@H](C(=O)Nc2ccc(Cl)c(F)c2)C1 [(S)-MCG-III-188-A02] | 0.53 fold | higher activity |
| CS(=O)(=O)N1CCC[C@H](C(=O)Nc2cccc(F)c2)C1 [(S)-MCG-III-027-B03] | 0.13 fold |  |
| CS(=O)(=O)N1CCC[C@H](C(=O)Nc2ccc(F)cc2F)C1 [(S)-MCG-III-027-D04] | 0.07 fold |  |

— patent publication US12286401B2, “Small molecules that sensitize HIV-1 infected cells to antibody dependent cellular cytotoxicity” (THE TRUSTEES OF THE UNIVERSITY OF PENNSYLVANIA, priority 2018, dated 2025)
